For orientation: DC50 means the concentration giving 50% degradation.

Data on 22 compounds can be found in patent publication US20250205342A1, “IRAK DEGRADERS AND USES THEREOF” (Kymera Therapeutics, Inc., priority 2022, published 2025).

In assay [1] the target is T1, IRAK4 (Homo sapiens, UniProt Q9NWZ3).
T1 sequence (Q9NWZ3 1-460): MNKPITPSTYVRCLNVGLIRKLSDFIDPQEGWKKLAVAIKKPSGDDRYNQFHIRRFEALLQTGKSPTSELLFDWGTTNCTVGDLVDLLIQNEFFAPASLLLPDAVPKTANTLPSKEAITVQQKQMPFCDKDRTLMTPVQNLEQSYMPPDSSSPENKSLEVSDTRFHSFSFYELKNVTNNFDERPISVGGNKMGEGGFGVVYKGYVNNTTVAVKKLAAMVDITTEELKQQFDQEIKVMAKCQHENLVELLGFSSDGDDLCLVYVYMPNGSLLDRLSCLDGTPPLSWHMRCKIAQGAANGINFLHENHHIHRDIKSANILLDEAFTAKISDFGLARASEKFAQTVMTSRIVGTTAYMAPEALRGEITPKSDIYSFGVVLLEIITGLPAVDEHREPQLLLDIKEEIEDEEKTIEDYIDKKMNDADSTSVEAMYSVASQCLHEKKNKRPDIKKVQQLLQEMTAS
Nature of the assay: hPBMC IRAK4 degradation flow assay (monocytes). The following applies: CD14 positive monocytes, 20 h, read-out: hPBMC monocyte DC50 at 20 h. Further details: endogenous in cells; host or cells: human PBMCs (monocytes, CD14 positive gate). The class given is cell-based. The method, then: In the hPBMC IRAK4 degradation flow assay, frozen PBMCs were thawed into RPMI with 10% FBS and allowed to recover. On the same day as thawed, PBMCs were plated in 96 well plate, 90 μL per well. Compound plates were prepared and a 10 point, 5-fold dilution was performed with a final DMSO concentration of 0.1%. Compound 10 μL per well was added, sealed and incubated at 37° C., 5% CO2 for 20 hours (for 4 hour treatment, compounds were prepared and added the following day). Following the treatment incubation period (day 1), 1.6% PFA was added to PBMC plate and placed on plate shaker for 30 seconds and incubated for 10 mins at room temperature. Cells were spun down and washed two times with PBS/0.5% BSA, aspirated to pellet and placed into −80° C. freezer until further processing for flow. On the flow run day, PBMC plates were thawed and samples were transferred to PCR plates. The pre-perm staining cocktail (CD3 Ax488/CD8 BUV805/CD14 BUV395/CD16/56 BV711/CD19 BV785) was added to samples and incubated for 30 minutes at room temperature. Samples were washed two times and permeabilized with methanol for 10 minutes at 4° C. Samples were washed two times and the post-perm staining cocktail (CD4 PE/IRAK4 Ax647 BD #560315) was added and incubated for 30 minutes at room temperature. Samples were washed two times with PBS/BSA and run on a BD LSRFortessa. Mononuclear cells are gated by SSCH/FSCH and single cells. Monocytes are then gated through CD14 positive gate and lymphocytes are gated through CD14 negative gate. To determine absolute DC50 and max degradation values, MFI values were normalized to DMSO max and 20 hour 10 µM min control. Twenty hour dose curves were calculated using a 4 parameter logistic regression curve fit, no constraints (Top doses were removed if hook effects were observed and the bottom was constrained to 0).
(§1) IRAK4 MSD degradation in OCI-LY10 results at 4 and 24 hrs and hPBMC at 20 hrs for compounds of the invention are presented in Table 3. The letter codes for IRAK4 DC50 include: A (<0.1 μM), B (0.1-1.0 μM), C(>1.0-10.0 μM), D (>10.0 μM or not determined).

Assay [2] has as its target T1, IRAK4. Nature of the assay: IRAK4 degradation in OCI-LY10 (MSD, Meso Scale Discovery). In kind it is cell-based. Further details: endogenous in cells; host or cells: OCI-LY10. The following applies: OCI-LY10 cells, 24 h. The method, then: Degradation of IRAK4 in OCI-LY10 was quantitatively measured using Meso Scale Discovery technology. OCI-LY10 cells were seeded in 96-well plates (Corning 3799) with a density of 300,000 cells per well in 100 μL fresh media. Compounds were then added to the assay plates with a final top concentration of 1 to 10 μM in a 1:3 dilution series with total of 8 doses. The assay plates were then incubated for 4 to 24 hours at 37° C. under 5% CO2. The assay plates were then centrifuged for 5 minutes and the cell pellets were treated with 100 μL/well RIPA lysis buffer (Boston BioProducts BP-115D) with proteinase inhibitors. To prepare MSD assay plates (Meso Scale Discovery Catalog number L15XA-3), the plates were coated with 2 ug/mL capture antibody (mouse Anti-IRAK4 antibody [2H9], ab119942) in PBS, at 40 μL/well. The plates were then incubated overnight at […], washed 3 times with 150 μL/well TBST buffer (Cell Signaling Technology, Catalog number 9997S) and blocked with 150 μL/well blocking buffer (Meso Scale Discovery Catalog number R^93BA-4). Cell lysates were then added to MSD assay plates and the plates were incubated at room temperature for 1 hour. The plates were then washed 3 times with 150 μL/well TBST buffer and 25 μL/well primary detection antibody (rabbit Anti-IRAK4 antibody [Y279], from Abcam. Catalog number ab32511, 1 μg/mL). The assay plates were then incubated at room temperature for 1 hour, washed 3 times with 150 μL/well TBST buffer and 25 μL/well secondary detection antibody, SULFO-TAG anti-rabbit antibody were added (anti-rabbit antibody from Meso Scale Discovery, Catalog number R^32AB-1, 1 μg/mL). The assay plates were then incubated at room temperature for 1 hour, washed 3 times with 150 μL/well TBST buffer, and 150 μL/well MSD reading buffer (Meso Scale Discovery catalog number R^92TC-2) was added. The plates were then analyzed by a MSD reader (Meso Scale Discovery, Model Quick Plex SQ 120). The data was then analyzed by software Prism 7.0 from GraphPad and the dose-depended IRAK4 degradation were fit using a three-parameter logistic equation to calculate DC50.
as §1

Take `CCOC(=O)Cn1cc(NC(=O)C2CCCN(c3cncc(N4CCC(CN(C)C[C@H]5CC[C@H](n6cc7cc(NC(=O)c8cccc(C(F)(F)F)n8)c(OC)cc7n6)CC5)CC4)c3)C2)ccc1=O` (some centres unmarked) [Compound I-20]: the DC50 on IRAK4 [1] and on IRAK4 [2] was over 10 µM throughout.

In the case of `O=C(O)Cn1cc(NC(=O)[C@H]2CCCN(c3cncc(C4CCN(C[C@H]5CC[C@H](n6cc(NC(=O)c7cnn8ccc(N9C[C@H]%10C[C@@H]9CO%10)nc78)c(C(F)F)n6)CC5)CC4)c3)C2)ccc1=O` [Compound I-12], the DC50 on IRAK4 [1] and at IRAK4 [2] was over 10 µM in each case.

In the case of `CC(C)(O)c1cc2nn([C@H]3CC[C@H](CNCCCCCCc4cc(C(=O)Nc5ccc(=O)n(CC(=O)O)c5)cc(-c5cccnc5)c4)CC3)cc2cc1NC(=O)c1cccc(C(F)(F)F)n1` [Compound I-96], the 50% degradation concentration (DC50) at IRAK4 [1] and on IRAK4 [2] was over 10 µM each time.

Take `O=C(O)Cn1cc(NC(=O)c2cccc(-c3cncc(CCCCCCCCCNC[C@H]4CC[C@H](n5cc(NC(=O)c6cnn7ccc(N8C[C@H]9C[C@@H]8CO9)nc67)c(C(F)F)n5)CC4)c3)c2)ccc1=O` [Compound I-85]: the DC50 at IRAK4 [1] and at IRAK4 [2] was over 10 µM throughout.

As to `COc1cc2nn([C@H]3CC[C@H](CN4CCC(c5cncc(N6CCC[C@H](C(=O)Nc7ccc(=O)n(CC(=O)O)c7)C6)c5)CC4)CC3)cc2cc1NC(=O)c1cccc(C(F)(F)F)n1` [Compound I-10], the DC50 on IRAK4 [1] and on IRAK4 [2] was over 10 µM throughout.

Regarding `CCOC(=O)Cn1cc(NC(=O)[C@H]2CCCN(c3cncc(OCCOCCOCCNC[C@H]4CC[C@H](n5cc(NC(=O)c6cnn7ccc(N8C[C@H]9C[C@@H]8CO9)nc67)c(C(F)F)n5)CC4)c3)C2)ccc1=O` [Compound I-45], the half-maximal degradation concentration (DC50) at IRAK4 [1] was 1 to 10 µM; at IRAK4 [2] it was over 10 µM.

In the case of `O=C(O)Cn1cc(NC(=O)c2cccc3c2ccn3CCCCCCNC[C@H]2CC[C@H](n3cc(NC(=O)c4cnn5ccc(N6C[C@H]7C[C@@H]6CO7)nc45)c(C(F)F)n3)CC2)ccc1=O` [Compound I-59], the DC50 at IRAK4 [1] and on IRAK4 [2] was over 10 µM throughout.

Turning to `CCOC(=O)Cn1cc(NC(=O)[C@H]2CCCN(c3cncc(NCCOCCOCCNC[C@H]4CC[C@H](n5cc6cc(NC(=O)c7cccc(C(F)(F)F)n7)c(OC)cc6n5)CC4)c3)C2)ccc1=O` [Compound I-5], the DC50 on IRAK4 [1] is 1 to 10 µM; at IRAK4 [2], over 10 µM.

Regarding `CCOC(=O)Cn1cc(NC(=O)[C@H]2CCCN(c3cncc(OCCOCCOCCNC[C@H]4CC[C@H](n5cc6cc(NC(=O)c7cccc(C(F)(F)F)n7)c(OC)cc6n5)CC4)c3)C2)ccc1=O` [Compound I-41], the DC50 at IRAK4 [1] and at IRAK4 [2] was over 10 µM in each case.

On to `CCOC(=O)Cn1cc(NC(=O)[C@H]2CCCN(c3cncc(C4CCN(C[C@H]5CC[C@H](n6cc7cc(NC(=O)c8cccc(C(F)(F)F)n8)c(OC)cc7n6)CC5)CC4)c3)C2)ccc1=O` [Compound I-17], for which the DC50 at IRAK4 [1] was 1 to 10 µM; on IRAK4 [2], over 10 µM.

As for `COc1cc2nn([C@H]3CC[C@H](CNCCOCCOCCOCCOCCNc4cncc(N5CCC[C@H](C(=O)Nc6ccc(=O)n(CC(=O)O)c6)C5)c4)CC3)cc2cc1NC(=O)c1cccc(C(F)(F)F)n1` [Compound I-3], the DC50 at IRAK4 [1] and at IRAK4 [2] was over 10 µM each time.

Take `CCOC(=O)Cn1cc(NC(=O)c2cc(CCCCCCCCCNC[C@H]3CC[C@H](n4cc(NC(=O)c5cnn6ccc(N7C[C@H]8C[C@@H]7CO8)nc56)c(C(F)F)n4)CC3)cc(-c3cccnc3)c2)ccc1=O` [Compound I-75]: the DC50 at IRAK4 [1] is over 10 µM; at IRAK4 [2] it was 1 to 10 µM.

`O=C(O)Cn1cc(NC(=O)c2cccc3c2ccn3CCCNC[C@H]2CC[C@H](n3cc(NC(=O)c4cnn5ccc(N6C[C@H]7C[C@@H]6CO7)nc45)c(C(F)F)n3)CC2)ccc1=O` [Compound I-77]: the DC50 at IRAK4 [1] and at IRAK4 [2] was over 10 µM in each case.

On to `COc1cc2nn([C@H]3CC[C@H](CNCCOCCOCCOCCOCCOc4cncc(N5CCC[C@H](C(=O)Nc6ccc(=O)n(CC(=O)O)c6)C5)c4)CC3)cc2cc1NC(=O)c1cccc(C(F)(F)F)n1` [Compound I-38], for which the DC50 is 1 to 10 µM on IRAK4 [1] and over 10 µM on IRAK4 [2].

As to `O=C(O)Cn1cc(NC(=O)[C@H]2CCCN(c3cncc(NCCOCCOCCOCCOCCNC[C@H]4CC[C@H](n5cc(NC(=O)c6cnn7ccc(N8C[C@H]9C[C@@H]8CO9)nc67)c(C(F)F)n5)CC4)c3)C2)ccc1=O` [Compound I-4], the DC50 on IRAK4 [1] and at IRAK4 [2] was over 10 µM each time.

`CC(C)(O)c1cc2nn([C@H]3CC[C@H](CNCCCCCCc4cccc5c(-c6cccc(C(=O)Nc7ccc(=O)n(CC(=O)O)c7)c6)cncc45)CC3)cc2cc1NC(=O)c1cccc(C(F)(F)F)n1` [Compound I-51]: the DC50 at IRAK4 [1] and at IRAK4 [2] was over 10 µM throughout.

As to `O=C(O)Cn1cc(NC(=O)[C@H]2CCCN(c3cncc(CCNC[C@H]4CC[C@H](n5cc(NC(=O)c6cnn7ccc(N8C[C@H]9C[C@@H]8CO9)nc67)c(C(F)F)n5)CC4)c3)C2)ccc1=O` [Compound I-28], the DC50 on IRAK4 [1] and on IRAK4 [2] was over 10 µM in each case.

With `CC(C)(O)c1cc2nn([C@H]3CC[C@H](CNCCCCCCCCCC4=CC(c5cccnc5)CC(C(=O)Nc5ccc(=O)n(CC(=O)O)c5)=C4)CC3)cc2cc1NC(=O)c1cccc(C(F)(F)F)n1` (some centres unmarked) [Compound I-60], the DC50 at IRAK4 [1] and on IRAK4 [2] was over 10 µM throughout.

In the case of `O=C(O)Cn1cc(NC(=O)c2cccc3c2ccn3CCCCCCCCCNC[C@H]2CC[C@H](n3cc(NC(=O)c4cnn5ccc(N6C[C@H]7C[C@@H]6CO7)nc45)c(C(F)F)n3)CC2)ccc1=O` [Compound I-70], the DC50 on IRAK4 [1] and at IRAK4 [2] was over 10 µM throughout.

As for `CCOC(=O)Cn1cc(NC(=O)[C@H]2CCCN(c3cncc(OCCNC[C@H]4CC[C@H](n5cc6cc(NC(=O)c7cccc(C(F)(F)F)n7)c(OC)cc6n5)CC4)c3)C2)ccc1=O` [Compound I-33], the DC50 on IRAK4 [1] is 1 to 10 µM; on IRAK4 [2] it was over 10 µM.

Turning to `O=C(O)Cn1cc(NC(=O)c2cc(CCCNC[C@H]3CC[C@H](n4cc(NC(=O)c5cnn6ccc(N7C[C@H]8C[C@@H]7CO8)nc56)c(C(F)F)n4)CC3)cc(-c3cccnc3)c2)ccc1=O` [Compound I-76], the DC50 on IRAK4 [1] and at IRAK4 [2] was over 10 µM in each case.

On to `COc1cc2nn([C@H]3CC[C@H](CNCCc4cncc(N5CCC[C@H](C(=O)Nc6ccc(=O)n(CC(=O)O)c6)C5)c4)CC3)cc2cc1NC(=O)c1cccc(C(F)(F)F)n1` [Compound I-26], for which the DC50 at IRAK4 [1] and at IRAK4 [2] was over 10 µM each time.
